Experimental data as given in publication PMC11022737, “Targeting GRP75 with a Chlorpromazine Derivative Inhibits Endometrial Cancer Progression Through GRP75–IP3R‐Ca^2+‐AMPK Axis” (Advanced Science, 2024).
Like-named read-outs stand apart in the source and are kept apart here.

Legend:
[1] = tested on: endometrial cancer organoid (ECO); assay: anti-proliferation in endometrial cancer organoid (ECO) model; format: cell-based; settings: Homo sapiens, n = 3, mean ± SD
Procedure: ECO cultures were established as described previously.^[ [50] ^] Biopsies were cut into small pieces and extensively rinsed in phosphate‐buffered saline (PBS; HyClone, SH30256.01) containing 2% penicillin–streptomycin solution (Thermo Fisher Scientific, 10 010 023). Tissues were incubated in TrypLE (1x; Thermo Fisher Scientific, 12 604 013) supplemented with rock inhibitor for 20 min and then mechanically sheared to obtain a cell suspension. Digestion was stopped by dilution with equal amounts of DMEM/F12 and centrifuged at 1300 rpm for 5 min at 4 °C. The pellet was resuspended in Matrigel (Corning, 356 231, Corning, NY, USA), and 30 µL droplets were deposited in pre‐warmed 24‐well plates. ECOs were cultured as described previously.^[ [51] ^] For passages (performed every 10–20 d), organoids were recovered via liquefaction of the Matrigel drops with ice‐cold DMEM/F12 to ensure maximum organoid collection. Subsequently, ECOs were dissociated by repeated pipetting using TrypLE (in DMEM/F12 containing rock inhibitor), and the mixture was centrifuged at 1300 rpm. […]
EC cells were seeded into 96‐well plates at a concentration of 8 × 10^3 cells well^−1 in a 100 µL volume and cultured overnight. […] Absorbance at 450 nm was measured using a microplate reader (BioTek Synergy H1, Agilent Technologies, Santa Clara, CA, USA).

[2] = plasma protein binding using equilibrium dialysis; format: in vitro ADME
Text: Plasma protein binding using equilibrium dialysis: A 96-well equilibrium dialysis device and HTD 96 a/b regenerated cellulose membrane strips with a molecular mass cutoff of 12–14 kDa were obtained from HTDialysis LLC (Gales Ferry, CT). The dialysis device was assembled following the manufacturer's instructions.

[3] = pharmacokinetic assay in SD rats (PO, IP, IV); format: in vivo; settings: male, rat, plasma
Procedure: Three male SD rats (208–259 g, 6–8 weeks) per group were purchased from JH Laboratory Animal Co. LTD. All rats were raised under controlled temperature and humidity conditions and had free access to food and water. […] Each rat was injected with a combination solution at doses of 2, 10, and 5 mg kg^−1 for IV, PO, and IP, respectively. Blood samples collected in anticoagulant (K2EDTA)‐containing tubes at 0.25, 0.5, 1, 2, 4, 8, and 24 h after injection were centrifuged at 2000 × g at 4 °C for 5 min to obtain plasma. LC‐MS/MS analysis of samples was carried out using an ACQUITY UPLC HSS T3 1.8 µm column. The mobile phase was a mixture of phase A (0.1% formic acid in water) and phase B (0.1% formic acid in acetonitrile), which ran in gradient mode at a flow rate of 0.6 mL min^−1 at 60 °C. Mass spectra were obtained on an API6500 triple quadrupole equipped with an ESI source. Glipizide was used as an internal standard. The plasma concentrations of the compounds were analyzed, and the pharmacokinetic parameters were calculated via WinNonlin.

[4] = tested on: ISK cells xenograft tumors; assay: ISK tumor xenograft in nude mice; format: in vivo, BALB/c nude mice
Text: All animal experiments were approved by the Committee on the Ethics of Animal Experiments of Shanghai Jiao Tong University, China (GKLW 2018–40). Female BALB/c nude mice (at least 5 weeks old) were procured from a commercial supplier (JieSiJie, Shanghai, China) through the Department of Laboratory Animal Science at Shanghai Jiaotong University School of Medicine. Mice were maintained under standard conditions and cared for according to the institutional guidelines for animal care. EC cells resuspended in PBS were mixed with Matrigel (BD Biosciences) in equal volume and then subcutaneously injected into the armpits of the nude mice. […] The dose of the compound injected into the mice was slightly adjusted following the methodology described in the previous study.^[ [7] ^] Every 2 d, the length (L) and width (W) of each tumor were measured twice using an external Vernier caliper for automatic reading, where the larger of the two measurements was defined as L and the smaller as W. The tumor volume was calculated using Equation 1, as follows: (1) V=0.52×L×W^2
HSP‐70 ELISA kits were purchased from YuBo Biology. […] Equal amounts of diluted protein supernatant were used, and the assay was conducted according to the manufacturer's instructions. The obtained absorbance values for protein levels were then transferred to in‐house data analysis software developed using the Windows Microsoft Excel platform to calculate the standard deviations for each group, and the average absorbance for each group was compared to the standardized controls. Each test group for each of the proteins of interest consisted of eight replicates. Assay‐specific controls were run with each plate to ensure optimal accuracy of the results.

EC cells (ISK) = assay: MAM integrity and mitochondrial Ca2+ (TEM, confocal imaging) in EC cells; format: cell-based, human
Procedure: EC cells were fixed with 2.5% glutaraldehyde in sodium cacodylate buffer (0.1 mol L^−1, pH 7.2) at 4 °C overnight and post‐fixed for 1 h in 1% osmium tetroxide. Samples were stained for 1 h with 1% uranyl acetate in water before dehydration and embedding in the TAAB resin. Images were obtained using a transmission electron microscope.
Co‐localization analysis of the ER and mitochondria was conducted as previously described.^[ [64], [65] ^] EC cells grown on glass slides were loaded with Mito‐Tracker Red (0.3 µmol L^−1) and ER‐Tracker Green (1 µmol L^−1) at 37 °C for 30 min. Images were captured using a confocal microscope equipped with a 100× oil immersion objective (excitation at 488 and 594 nm, emission at 505–530 and >560 nm, respectively). Co‐localization of the ER and mitochondria was quantified as Manders’ co‐localization coefficient (MCC) using ImageJ software with a JACoP plugin. MCCs were calculated according to the fraction of mitochondrial pixels in contact with the ER (with a higher value representing more co‐localization). The co‐localization of Rhod‐2 (red fluorescent signal, 4 µmol L^−1) with Mito‐Tracker Green (0.3 µmol L^−1) in the live cells was performed as described above.

ISK and KLE cells [5] = assay: ATP production and α-KGDH activity in EC cells; format: cell-based, human; settings: 10 µmol L−1
Procedure: The intracellular ATP levels were then checked using an enhanced ATP kit (Beyotime Biotechnology, Jiangsu, China), in accordance with the manufacturer's instructions. The entire cell population, including any floating cells, was collected, lysed, and boiled to release the ATP for the assay, and the results were compared with those from the DMSO group (%).
Intracellular α‐KGDH activity levels were measured using an α‐KGDH activity assay kit (Solarbio, Beijing, China) according to the manufacturer's instructions. Briefly, the entire cell population, including any floating cells, was collected, milled, and the absorbance measured. The α‐KGDH activity was then determined using Equation 2 as follows: (2) α−KGDH=U/10^4cell=4.962×ΔAdetermination−ΔAblank

ISK and KLE cells [6] = assay: Seahorse glycolytic rate assay (ECAR); format: cell-based, human; settings: 10 µM
Procedure: The ECAR and OCR were measured using the Seahorse XF Glycolysis Stress Test Kit or Seahorse XF Cell Mito Stress Test Kit on the Seahorse XF 96 Extracellular Flux Analyzer (Seahorse Bioscience, North Billerica, MA, USA), according to the manufacturer's introductions. […] Glucose, oligomycin, and 2‐deoxy‐glucose were used to determine the ECAR values, whereas oligomycin, carbonyl cyanide‐p‐trifluoromethoxyphenylhydrazone, and rotenone were used to measure the OCR.

[7] = tested on: AMPK signaling in ISK and KLE cells; assay: Western blotting of p-AMPK and BIM; format: cell-based, human
Text: EC cells were lysed in RIPA buffer (Epizyme, PC102, Ipsen Biopharmaceuticals, Cambridge, MA, USA) supplemented with a protease inhibitor cocktail. Samples were then quantified using a BCA kit (Epizyme, ZJ101), resolved by SDS‐PAGE, and blotted with primary antibodies and corresponding horseradish peroxidase‐conjugated secondary antibodies. The primary antibodies used included anti‐AMPK (1:1000 dilution), anti‐p‐AMPK (1:1000 dilution), anti‐BIM (1:1000 dilution), and anti‐GRP75 (1:1000 dilution) from Cell Signaling Technology (Beverly, MA, USA) and anti‐GAPDH (1:1500 dilution) from Yeason.

[8] = design: method as in PMID 35868106; settings: cited from earlier work
GRP75 = target: T1, GRP75 (Homo sapiens, UniProt P38646); assay: microscale thermophoresis (MST) binding assay; settings: His-tagged recombinant GRP75 50 nmol L−1, n = 3; read-out: K d, binding to GRP75 (MST)
T1 construct: purchased Zoonbio Biotechnology Co., Ltd. (Nanjing, China); host or cells: E. coli
T1 sequence (P38646 47-679): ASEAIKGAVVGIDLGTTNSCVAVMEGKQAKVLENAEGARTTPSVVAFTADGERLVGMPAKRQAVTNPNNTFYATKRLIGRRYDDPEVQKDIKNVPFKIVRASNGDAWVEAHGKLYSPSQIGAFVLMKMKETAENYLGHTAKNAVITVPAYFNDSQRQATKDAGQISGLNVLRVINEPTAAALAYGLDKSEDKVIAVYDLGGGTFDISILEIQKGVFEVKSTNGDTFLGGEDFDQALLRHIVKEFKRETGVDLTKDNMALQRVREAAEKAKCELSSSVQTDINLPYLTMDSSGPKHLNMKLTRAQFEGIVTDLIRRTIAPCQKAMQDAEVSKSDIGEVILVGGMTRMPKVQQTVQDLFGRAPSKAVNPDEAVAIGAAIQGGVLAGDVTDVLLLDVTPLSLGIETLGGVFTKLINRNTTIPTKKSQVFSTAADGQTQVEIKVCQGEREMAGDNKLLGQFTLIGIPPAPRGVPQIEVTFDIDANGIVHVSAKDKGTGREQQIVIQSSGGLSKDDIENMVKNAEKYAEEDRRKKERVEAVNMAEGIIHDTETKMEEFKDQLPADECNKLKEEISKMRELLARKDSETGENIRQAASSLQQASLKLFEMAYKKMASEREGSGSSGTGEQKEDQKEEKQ
Procedure: Purified GRP75 protein was obtained by Zoonbio Biotechnology Co., Ltd. (Nanjing, China). Recombinant His‐tagged GRP75 protein was labeled with RED‐tris‐NTA second generation dye solution (MO‐L018, NanoTemper Technologies), according to the manufacturer's instructions. […] All samples were diluted in 1× PBST and contained the same amount of DMSO. The K d was determined in MO. Control using the K d fit.

water solubility = format: physicochemical
[9] = IP 5 mg kg−1, read-out: AUC 0–24 h
[10] = IP 5 mg kg−1, read-out: AUC 24 h−∞
[11] = IV 2 mg kg−1, read-out: AUC 0–24 h
[12] = IV 2 mg kg−1, read-out: AUC 24 h−∞
[13] = PO 10 mg kg−1, read-out: AUC 0–24 h
[14] = PO 10 mg kg−1, read-out: F (oral bioavailability)

CN(C)CCCN1c2ccccc2Sc2ccc(Cl)cc21 [CPZ, chlorpromazine]
IC50 [1]: 58.2 ± 7.62 µM | % Bound (plasma protein binding rate) [2]: 98.44% | fraction unbound [2]: 0.0156

CN1CCN(CCCCCN2c3cc(Cl)ccc3Sc3cccnc32)CC1 [JX57]
%Unbound [2]: 0.84% | Cmax ([3]; IP 5 mg kg−1): 3.04 ± 1.12 ng/mL | Tmax ([3]; IP 5 mg kg−1): 0.33 ± 0.14 h | half-life ([3]; IP 5 mg kg−1): 3.06 ± 1.03 h | AUC(0-t) [3, 9]: 9.01 ± 7.03 ng·h/mL | AUC(0-inf) [3, 10]: 14.2 ± 8.39 ng·h/mL | bioavailability ([3]; IP 5 mg kg−1, read-out: F): 44.4 ± 34.6% | clearance ([3]; IV 2 mg kg−1): 2650 mL/min/kg | half-life ([3]; IV 2 mg kg−1): 2.72 ± 0.9 h | AUC(0-t) [3, 11]: 8.12 ± 4.13 ng·h/mL | AUC(0-inf) [3, 12]: 13.9 ± 5.43 ng·h/mL | Cmax ([3]; PO 10 mg kg−1): 11.3 ± 4.57 ng/mL | Tmax ([3]; PO 10 mg kg−1): 0.41 ± 0.14 h | half-life ([3]; PO 10 mg kg−1): 4.03 ± 0.88 h | AUC(0-t) [3, 13]: 41.5 ± 15.7 ng·h/mL | AUC(0-inf) ([3]; PO 10 mg kg−1, read-out: AUC 24 h−∞): 55.7 ± 24.3 ng·h/mL | bioavailability [3, 14]: 94.3 ± 46.9% | expression of GRP75 in xenograft tumors with ISK cells (ELISA) ([4]; 5 mg kg−1, n = 8): reduced | effects on GRP75-knockdown ISK tumor versus vehicle group ([4]; GRP75-deficient ISK cells in nude mice, 5 mg kg−1 i.p. daily, n = 6): not significantly different | anticancer effect in vivo on addition of the AMPK inhibitor compound C ([4]; JX57 5 mg kg−1 plus compound C 0.2 mg kg−1, n = 6): partially abolished | ER–mitochondrial distance (TEM) (EC cells (ISK); EC cells (ISK), 10 µmol L−1): significantly expanded | [Ca2+]m levels (EC cells (ISK); EC cells, 10 µmol L−1, confocal Rhod-2/Mito-Tracker): decreased | cellular ATP levels (ISK and KLE cells [5]): reduced | α‐ketoglutarate activity (ISK and KLE cells [5]): reduced | glycolysis rate and glycolytic capacity (ECAR) (ISK and KLE cells [6]): markedly reduced | p‐AMPK expression and BIM expression [7]: increased | extrapyramidal side effects [8]: minor

Clc1ccc2c(c1)N(CCCCCN1CCC3(CCCCC3)CC1)c1ncccc1S2 [JX66]
IC50 [1]: 6.39 ± 0.87 µM | Cmax ([3]; IP 5 mg kg−1): 10 ± 1.49 ng/mL | Tmax ([3]; IP 5 mg kg−1): 1.67 ± 0.57 h | half-life ([3]; IP 5 mg kg−1): 10.1 ± 1.38 h | AUC(0-t) [3, 9]: 140 ± 35.3 ng·h/mL | AUC(0-inf) [3, 10]: 170 ± 37.4 ng·h/mL | bioavailability ([3]; IP 5 mg kg−1, read-out: F): 42.5 ± 13% | clearance ([3]; IV 2 mg kg−1): 265 mL/min/kg | half-life ([3]; IV 2 mg kg−1): 5.1 ± 1.69 h | AUC(0-t) [3, 11]: 144 ± 75.9 ng·h/mL | AUC(0-inf) [3, 12]: 153 ± 75.9 ng·h/mL | Cmax ([3]; PO 10 mg kg−1): 3.8 ± 1.29 ng/mL | Tmax ([3]; PO 10 mg kg−1): 5.5 ± 4.33 h | AUC(0-t) [3, 13]: 16 ± 2.65 ng·h/mL | bioavailability [3, 14]: 2.23 ± 0.37% | Kd (GRP75): 37.6 µM | water solubility (water solubility): poor | extrapyramidal side effects [8]: minor
